{"source": "patent US20250049708A1", "about": "“A TOPICAL GEL FORMULATION FOR SKIN AND MOUTH DISORDERS AND A PROCESS OF PREPARATION THEREOF” (priority 2021, published 2025)", "assay_type_in_all_cases": "in vivo, male BALB/c mice", "key": {"[1]": {"tested_on": "IL-6", "test": "tongue and serum IL-6 levels in mice with oral mucositis (mouse IL-6 ELISA kit)", "details": "5-FU + scratch mice", "protocol": "(§1) The in vivo pharmacological assessment of anti-mucositis activity of the topical or oromucosal gel formulation in male BALB/c mice was performed. The study protocol involves six BALB/c mice namely vehicle, 5-Fluorouracil (FU) group, 5 FU-group+Scratching, FU-group+Scratching, FU-group+Scratching+100 ug gel and FU-group+Scratching+30 ug respectively were maintained under specific pathogen-free conditions. The mice were 6-8 weeks of age and weighed 25-30 g. All animal experimental procedures were performed in accordance with the Institutional Animal Ethics Committee (IAEC) guidelines along with approval from IAEC.\n(§2) The anti-mucositis study protocol involves mice that are intraperitoneally administered with 5-FU at 100 mg/kg on day 0. The scratching group of mice was anesthetized with isoflurane and an area of 0.5 cm^2 of the tongue was scratched using the tip of an 18-gauge needle at an equal force and depth on days 7 and 8. […]\n(§3) The levels of biomarkers such as IL-6 and TNF-α were analyzed in mice upon treatment with topical or oromucosal gel formulation. The concentrations of these biomarkers in serum and tongue were analyzed using standard ELISA kits.\nThe tongue and serum concentrations of IL-6 were analyzed in mice with oral mucositis upon treatment with topical or oromucosal gel formulation. The concentrations of IL-6 in tongue and serum were analyzed using mouse IL-6 ELISA kit."}, "[2]": {"tested_on": "TNF-α", "test": "tongue and serum TNF-α levels in mice with oral mucositis (mouse TNF-α ELISA kit)", "details": "5-FU + scratch mice", "protocol": "as §1, §2, §3\nThe tongue and serum concentrations of TNF-α were analyzed in mice with oral mucositis upon treatment with topical or oromucosal gel formulation. The concentrations of TNF-α in tongue and serum were analyzed using mouse TNF-α ELISA kit."}, "[3]": {"test": "body weights of mice with oral mucositis over 15 days", "details": "5-FU + scratch mice; period of 15 days", "protocol": "as §1\nThe anti-mucositis study protocol involves mice that are intraperitoneally administered with 5-FU at 100 mg/kg on day 0. The scratching group of mice was anesthetized with isoflurane and an area of 0.5 cm^2 of the tongue was scratched using the tip of an 18-gauge needle at an equal force and depth on days 7 and 8. The scratching was blinded to the treatment groups. Dexamethasone was administered orally at 1 mg/kg/day from on day 7.\nThe body weights of mice with oral mucositis upon treatment with topical or oromucosal gel formulation were analyzed for a period of 15 days."}, "[4]": {"tested_on": "oral mucositis", "test": "anti-mucositis activity (mucositis score) in mice with 5-FU + tongue scratching induced oral mucositis", "details": "score 0-5", "protocol": "as §1\nThe activity of misoprostol of the topical or oromucosal gel formulation was analyzed for anti-mucositis in mice. The anti-mucositis activity is analyzed based on the mucositis score. The scoring parameters for anti-mucositis activity include erythema, vasodilation, erosion, bleeding, fibrosis, and ulcers.\nA scoring method is adopted for oral mucositis induced by radiation and chemotherapy. The scoring evaluates the relationship between dosage, delivery method and complications. The Scoring systems are useful in assessing the impact of therapy on patient. […]\nFIG. 5 illustrates the effect of topical or oromucosal gel formulation in mice with oral mucositis. The mucositis score was evaluated for 6 groups of mice (G1-G6) over a period of 15 days."}}, "data": [{"smiles": "C[C@@H]1C[C@H]2[C@@H]3CCC4=CC(=O)C=C[C@]4(C)[C@@]3(F)[C@@H](O)C[C@]2(C)[C@@]1(O)C(=O)CO", "note": "[Dexamethasone]", "values": [{"measurement": "serum IL-6 mean concentration", "setting": "[1]; serum", "result": 6.91}, {"measurement": "tongue IL-6 mean concentration", "setting": "[1]; tongue", "result": 44.20}, {"measurement": "serum TNF-α mean concentration", "setting": "[2]; serum", "result": 3.32}, {"measurement": "tongue TNF-α mean concentration", "setting": "[2]; tongue", "result": 20.07}, {"measurement": "body weight course", "setting": "[3]", "result": "decrease in weight for 8 days and gradually increases over the remaining 7 days"}, {"measurement": "mucositis score reached in the increase phase", "setting": "[4]; 5-FU 100 mg/kg i.p. day 0 + tongue scratch days 7 and 8, increase till day 8", "result": 3}, {"measurement": "mucositis score after decrease over the remaining days", "setting": "[4]; 5-FU + scratch, end of 15 day period", "result": 1}]}]}
